Results: patent publication US20220274947A1, “NOVEL HETEROARYL-TRIAZOLE COMPOUNDS AS PESTICIDES” (Bayer Aktiengesellschaft, priority 2019, published 2022)

Key:
Assay type in all cases: in vivo
Rhipicephalus microplus [1] = test: Rhipicephalus (Boophilus) microplus injection test (BOOPMI Inj); conditions: 168 h, injection into adult engorged female ticks, egg deposition after 7 days, read-out: activity (efficacy: 100% means all eggs are infertile); for pest or weed control at 0.004 mg: application rate 4 μg/tick; for pest or weed control at 0.02 mg: application rate 20 μg/tick
Outline: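 Compound in DMSO, 1 μL, injected abdominally into five adult engorged females, which were then held in a climate chamber. Read-out is egg fertility, scored from deposition at 7 days, with unclear eggs followed to hatching (~42 days); 0% means all eggs fertile, 100% all infertile.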

Rhipicephalus microplus [2] = test: Rhipicephalus (Boophilus) microplus in-vitro contact test, larval cattle tick, strain Parkhurst (BOOPMI Cont); conditions: application rate 5 μg/cm^2 (=500 g/ha), tick larvae, after 48 hours, read-out: activity (efficacy: 100% means all larvae are dead or moribund)
Outline: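 After 48 h at 27° C. and 85% humidity, percent dead or moribund larvae was scored from negative geotactic behaviour. Larvae (20-50, Parkhurst strain, synthetic pyrethroid-resistant) were exposed in tubes coated with compound from acetone, 900 ppm corresponding to 5 μg/cm^2.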

Ctenocephalides felis [3] = test: Ctenocephalides felis in-vitro contact test, adult cat flea (CTECFE Cont); conditions: application rate 5 μg/cm^2 (=500 g/ha), adult cat fleas, after 48 hours, read-out: activity (efficacy: 100% means all fleas are dead or moribund)
Outline: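 Efficacy, as percent of fleas dead or moribund, was scored 48 h after adults (5-10 per tube) were placed in glass tubes whose walls carried dried compound at 5 μg/cm^2 (900 ppm solution). Moribund meant failing to climb away from a 45-50° C. hot plate within 5 min.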

Ctenocephalides felis [4] = test: Ctenocephalides felis oral test (CTECFE Oral); conditions: 48 h, read-out: activity (mortality)
Outline: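 Percent mortality was recorded 2 days after roughly 20 adult Ctenocephalides felis fed on treated cattle blood. The blood was warmed to 37 °C beneath a parafilm membrane, with the fleas kept at room temperature. Compound was dissolved in DMSO and diluted into the blood to test concentration.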

Rhipicephalus sanguineus = Rhipicephalus sanguineus in-vitro contact test, adult brown dog ticks (RHIPSA Cont); conditions: 48 h, after 48 hours, read-out: activity (efficacy: 100% means all ticks are dead or moribund); for pest or weed control at 5 µg/cm2, 500 g/ha: application rate 5 μg/cm^2 (=500 g/ha); for pest or weed control at 1 µg/cm2, 100 g/ha: application rate 1 μg/cm^2 (=100 g/ha)
Outline: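 Mortality of adult R. sanguineus was judged 48 h after contact with acetone-applied residues on glass tube walls. Ticks that stayed immotile or moved without coordination when heated to 45–50 °C (max 5 min) counted as dead or moribund.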

Diabrotica balteata = Diabrotica balteata spray test; conditions: 168 h, wheat seeds, larvae, after 7 days, read-out: activity (efficacy: 100% means all seedlings have grown up like in the untreated, uninfected control); for pest or weed control at 160 µg/disc, 500 g/ha: application rate 500 g/ha (=160 μg/well); for pest or weed control at 32 µg/disc, 100 g/ha: application rate 100 g/ha (=32 μg/well)
Outline: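 Efficacy (%) was scored 7 days after spraying, with 100% meaning growth like the untreated, uninfected control and 0% meaning no seedling grew. Spray solutions of compound in acetone/DMF with emulsifier-containing water went onto 1-day-germinated wheat seeds, and each unit was then infested with 10-20 banded cucumber beetle larvae.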

Spodoptera frugiperda = Spodoptera frugiperda spray test; conditions: in Zea mays, 168 h, read-out: activity (mortality)
Outline: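 Percent kill of fall armyworm caterpillars was assessed 7 days after infesting dried, treated maize leaf sections. Treatment was a spray of compound in acetone/dimethylformamide, diluted with water containing emulsifier at 1000 ppm.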

[5] = test system: Aedes aegypti strain MONHEIM; test: Aedes aegypti test (AEDSAE surface treatment & contact assay); conditions: exposure 30 minutes, 24 hours after contact, read-out: efficacy (mortality); for mortality at 4 mg/m2: surface concentration 4 mg/m^2, glazed tile; for mortality at 20 mg/m2: surface concentration 20 mg/m^2, glazed tile
Outline: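 Compound dissolved in acetone (2 mg/ml) with 2000 ppm rapeseed oil methyl ester, pipetted onto glazed tile and dried. Adult mosquitoes exposed on the surface for 30 min; percent mortality scored 24 h after contact.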

[6] = test system: Culex quinquefasciatus strain P00; test: Culex quinquefasciatus test (CULXFA surface treatment & contact assay); conditions: surface concentration 20 mg/m^2, glazed tile, exposure 30 minutes, 24 hours after contact, read-out: efficacy (mortality)
Procedure: Culex quinquefasciatus Test (CULXFA Surface Treatment & Contact Assay) Solvent: Aceton+2000 ppm rapeseed oil methyl ester (RME)
(§1) In order to produce a sufficient, active ingredient containing solution it is necessary to solve the test compound in the solvent-mix (acetone at 2 mg/ml/RME 2 000 ppm). This solution is pipetted onto a glazed tile and after evaporation of the acetone, adult mosquitoes of the species Culex quinquefasciatus strain P00 are placed onto the dried surface. The exposure time is 30 minutes. Mortality in percent (%) is determined 24 hours after contact of the insects to the treated surface. 100% mortality means that all tested insects are dead, whereas 0% means that no insect died.

[7] = test system: Anopheles funestus strain FUMOZ-R; test: Anopheles funestus test (ANPHFU surface treatment & contact assay); conditions: exposure 30 minutes, 24 hours after contact, read-out: efficacy (mortality); for mortality at 4 mg/m2: surface concentration 4 mg/m^2, glazed tile; for mortality at 20 mg/m2: surface concentration 20 mg/m^2, glazed tile
Procedure: Anopheles funestus Test (ANPHFU Surface Treatment & Contact Assay) Solvent: Aceton+2000 ppm rapeseed oil methyl ester (RME)
as §1, with “2000” for “2 000”, “Anopheles funestus” for “Culex quinquefasciatus”, “FUMOZ-R (Hunt et al., Med. Vet. Entomol. 2005 September; 19(3): 271-275)” for “P00”

[8] = test system: Musca domestica strain WHO—N; test: Musca domestica test (MUSCDO surface treatment & contact assay); conditions: surface concentration 20 mg/m^2, glazed tile, exposure 30 minutes, 24 hours after contact, read-out: efficacy (mortality)
Outline: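 Compound dissolved in acetone (2 mg/ml) with 2000 ppm rapeseed oil methyl ester and pipetted onto glazed tile; after acetone evaporation, adult flies exposed to dried surface for 30 minutes. Mortality (%) scored 24 hours after contact.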

Myzus persicae [9] = test: Myzus persicae spray test; conditions: in Brassica rapa, foliar, 120 h; for mortality at 100 g/ha: read-out: activity (mortality), application rate 100 g/ha, spray, Chinese cabbage leaf disks, after 5 days
Procedure: Myzus persicae—Spray Test Solvent: 78.0 parts by weight acetone • 1.5 parts by weight dimethylformamide Emulsifier: alkylarylpolyglycol ether To produce a suitable preparation of active compound, 1 part by weight of active compound is mixed with the stated amount of solvents and is diluted with water, containing an emulsifier concentration of 1000 ppm, to the desired concentration. Further test concentrations are prepared by dilution with emulsifier containing water.
Chinese cabbage (Brassica pekinensis) leaf disks infected with all instars of the green peach aphid (Myzus persicae), are sprayed with a preparation of the active ingredient of the desired concentration.
After 5 days mortality in % is determined. 100% means all aphids have been killed and 0% means none of the aphids have been killed.

Myzus persicae [10] = test: Myzus persicae oral test; conditions: 120 h, read-out: activity (mortality)
Outline: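 Percent mortality was recorded at day 5, where 0% means no aphids killed. Compound prepared from an acetone concentrate diluted in water and combined with IPL41 medium containing sugar was offered to mixed-stage green peach aphids, which sucked it through a parafilm seal.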

Nezara viridula = Nezara viridula spray test; conditions: in Hordeum vulgare, 96 h, application rate 100 g/ha, barley plants, larvae, after 4 days
Outline: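 Mortality was read at day 4 (0% = no kill, 100% = total kill) after spraying larva-infested barley plants. Test solutions were made from an acetone/DMF concentrate diluted with water holding 1000 ppm alkylarylpolyglycol ether emulsifier.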

Row | SMILES | pest or weed control at 0.004 mg (Rhipicephalus microplus [1]) [%] | pest or weed control at 0.02 mg (Rhipicephalus microplus [1]) [%] | pest or weed control at 5 µg/cm2 (Rhipicephalus microplus [2]) [%] | pest or weed control at 5 µg/cm2 (Ctenocephalides felis [3]) [%] | mortality at 100 ppm (Ctenocephalides felis [4]) [%] | pest or weed control at 5 µg/cm2, 500 g/ha (Rhipicephalus sanguineus) [%] | pest or weed control at 160 µg/disc, 500 g/ha (Diabrotica balteata) [%] | mortality at 100 g/ha (Spodoptera frugiperda) [%] | mortality at 500 g/ha (Spodoptera frugiperda) [%] | mortality at 20 mg/m2 [5] [%] | pest or weed control at 1 µg/cm2, 100 g/ha (Rhipicephalus sanguineus) [%] | pest or weed control at 32 µg/disc, 100 g/ha (Diabrotica balteata) [%] | mortality at 20 mg/m2 [7] [%] | also measured
1 | C[C@H](NC(=O)c1cc(Cl)cc(C(F)(F)F)c1)c1ncnn1-c1cnc(C#N)cn1 [II-1] | 100 | 100 | 90 | 90 | 100 | 80 | 100 | 100 | 100 | 80 to 100 | – | – | – | mortality at 4 mg/m2 [5]: 80 to 100%; mortality at 20 mg/m2 [6]: 80 to 100%
2 | C[C@H](NC(=O)c1ccc(Cl)c(C(F)(F)F)c1)c1ncnn1-c1ccc(C#N)cn1 [II-10] | 100 | 100 | 100 | – | 100 | 100 | 100 | 100 | 100 | – | 80 | 100 | 80 to 100 | mortality at 4 mg/m2 [7]: 80 to 100%
3 | C[C@H](NC(=O)c1cc(Cl)cc(I)c1)c1ncnn1-c1ccc(C#N)cn1 [II-23] | 100 | 100 | 100 | 80 | – | – | 100 | 100 | 100 | 80 to 100 | – | 100 | 80 to 100 | mortality at 20 mg/m2 [8]: 80 to 100%
4 | CC(C)N(C)C(=O)c1ccc(-n2ncnc2[C@H](C)NC(=O)c2cc(Cl)cc(C(F)(F)F)c2)nc1 [II-26] | 100 | 100 | 100 | 100 | – | 80 | – | 83 | 100 | 80 to 100 | 100 | – | 80 to 100 | mortality at 500 g/ha (Myzus persicae [9]; read-out: activity (mortality), application rate 500 g/ha, spray, Chinese cabbage leaf disks, after 5 days): 100%
5 | Cc1nc([C@H](C)NC(=O)c2cccc(C(F)(F)F)n2)n(-c2ccc(C#N)cn2)n1 [II-48] | 100 | 100 | 100 | – | 90 | 100 | – | – | – | 80 to 100 | 100 | 100 | 80 to 100 | mortality at 4 mg/m2 [5]: 80 to 100%; mortality at 4 mg/m2 [7]: 80 to 100%
6 | Cc1nc([C@H](C)NC(=O)c2cc(F)cc(C#N)c2)n(-c2ccc(C#N)cn2)n1 [II-105] | 100 | – | 100 | 100 | 100 | 100 | – | 100 | – | – | 100 | 100 | – | mortality at 4 ppm (Myzus persicae [10]): 100%; mortality at 100 g/ha (Myzus persicae [9]): 90%; mortality at 100 g/ha (Nezara viridula): 100%
7 | Cc1nc([C@H](C)NC(=O)c2cc(OC(F)F)cc(C(F)F)c2)n(-c2ccc(C#N)cn2)n1 [II-113] | 100 | – | 100 | 100 | 100 | 100 | – | 100 | – | – | 80 | 100 | – | mortality at 0.8 ppm (Myzus persicae [10]): 100%; mortality at 4 ppm (Myzus persicae [10]): 100%; mortality at 100 g/ha (Myzus persicae [9]): 90%; mortality at 100 g/ha (Nezara viridula): 100%
8 | C[C@H](NC(=O)c1cc(Cl)cc(OC(F)(F)F)c1)c1ncnn1-c1ncc(OC(F)F)cn1 [II- 30] | – | – | – | – | – | – | – | – | – | – | – | – | – | mortality at 20 mg/m2 [6]: 80 to 100%
